US20250170090A1, “METHOD FOR PREVENTING OR TREATING DISEASE OR DISORDER ASSOCIATED WITH ANTINEOPLASTIC AGENT” (ONQUALITY PHARMACEUTICALS CHINA LTD., priority 2022, published 2025)
Read-outs that look alike come from different tables or passages of the source.

Assays:
[1] = test system: hand-foot syndrome induced by anti-tumor agents; assay: Prevention of hand-foot syndrome induced by anti-tumor agents in rats, NO-NSAID ointment on hind paws (Table 2-2); assay type: in vivo, SD rats; conditions: Rattus norvegicus, topical, 120 h, Sorafenib 80 mg/kg once a day, Days 5, read-out: Control rate
Method in brief: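 Female SD rats (8 weeks, ~200 g; 10/group) received anti-tumour agents by daily oral gavage in Cremophor EL:ethanol 1:1 diluted ~3× with PBS. NO-NSAID or blank ointment was applied to hind paws once daily, 4 h restrained, then wiped off. Control rate = blank-group minus treated-group hand-foot syndrome incidence.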

HUVEC cells = assay: CCK-8 cell viability: alleviation of proliferative toxicity of anti-tumor agents on HUVEC cells (Tables 7-1, 7-2); assay type: cell-based; conditions: for activation at 100 µM: Homo sapiens, 24 h, percentage increase in viable cells vs anti-tumor agent alone, read-out: Response rate % (average)
Method in brief: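 Viability was measured by CCK-8 after 24-48 h of culture. Cells received anti-tumor agent in DMSO with or without co-added NO-NSAID (dissolved in ethanol or sterile water), and results were corrected against the matching NO-NSAID solvent control.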

[2] = Afatinib (10 μM), NO-NSAID 100 μM
[3] = Cabozantinib (5 μM), NO-NSAID 100 μM
[4] = Dabrafenib (10 μM), NO-NSAID 100 μM
[5] = Everolimus (5 μM), NO-NSAID 100 μM
[6] = Infigratinib (15 μM), NO-NSAID 100 μM
[7] = Lapatinib (5 μM), NO-NSAID 100 μM
[8] = Lenvatinib (10 μM), NO-NSAID 100 μM
[9] = Olmutinib (10 μM), NO-NSAID 100 μM
[10] = Regorafenib (5 μM), NO-NSAID 100 μM
[11] = Selumetinib (5 μM), NO-NSAID 100 μM
[12] = Sorafenib (5 μM), NO-NSAID 100 μM
[13] = Sunitinib (5 μM), NO-NSAID 100 μM

CC(C)Cc1ccc(C(C)C(=O)OCO/N=[N+](\[O-])N(C)C)cc1 (stereo not drawn) [Compound A4]
responders at 0.5 % ([1]; ointment 0.50% wt): 42.9%
responders at 2 % ([1]; ointment 2% wt): 71.4%
NO-NSAID response rate % (average) (HUVEC cells; Afatinib (10 μM), NO-NSAID 0.1 μM): 18%
NO-NSAID response rate % (average) (HUVEC cells; Afatinib (10 μM), NO-NSAID 1 μM): 35%
NO-NSAID response rate % (average) (HUVEC cells; [2]): 70%
NO-NSAID response rate % (average) (HUVEC cells; Afatinib (10 μM), NO-NSAID 500 μM): 14%
NO-NSAID response rate % (average) (HUVEC cells; Cabozantinib (5 μM), NO-NSAID 0.1 μM): 3%
NO-NSAID response rate % (average) (HUVEC cells; Cabozantinib (5 μM), NO-NSAID 1 μM): 9%
NO-NSAID response rate % (average) (HUVEC cells; [3]): 13%
NO-NSAID response rate % (average) (HUVEC cells; Cabozantinib (5 μM), NO-NSAID 500 μM): 11%
NO-NSAID response rate % (average) (HUVEC cells; Dabrafenib (10 μM), NO-NSAID 0.1 μM): 20%
NO-NSAID response rate % (average) (HUVEC cells; Dabrafenib (10 μM), NO-NSAID 1 μM): 34%
NO-NSAID response rate % (average) (HUVEC cells; [4]): 33%
NO-NSAID response rate % (average) (HUVEC cells; Dabrafenib (10 μM), NO-NSAID 500 μM): 41%
NO-NSAID response rate % (average) (HUVEC cells; Everolimus (5 μM), NO-NSAID 0.1 μM): 10%
NO-NSAID response rate % (average) (HUVEC cells; Everolimus (5 μM), NO-NSAID 1 μM): −2%
NO-NSAID response rate % (average) (HUVEC cells; [5]): 1%
NO-NSAID response rate % (average) (HUVEC cells; Everolimus (5 μM), NO-NSAID 500 μM): 4%
activation at 100 µM (HUVEC cells; [2]): 70%
activation at 100 µM (HUVEC cells; Anlotinib (5 μM), NO-NSAID 100 μM): 67%
activation at 100 µM (HUVEC cells; Apatinib (10 μM), NO-NSAID 100 μM): 52%
activation at 100 µM (HUVEC cells; Axitinib (10 μM), NO-NSAID 100 μM): 39%
activation at 100 µM (HUVEC cells; [3]): 13%
activation at 100 µM (HUVEC cells; [4]): 33%
activation at 100 µM (HUVEC cells; Dacomitinib (5 μM), NO-NSAID 100 μM): 71%
activation at 100 µM (HUVEC cells; Encorafenib (5 μM), NO-NSAID 100 μM): 59%
activation at 100 µM (HUVEC cells; Erdafitinib (10 μM), NO-NSAID 100 μM): 45%
activation at 100 µM (HUVEC cells; [5]): 1%
activation at 100 µM (HUVEC cells; Famitinib (5 μM), NO-NSAID 100 μM): 69%
activation at 100 µM (HUVEC cells; Fruquintinib (10 μM), NO-NSAID 100 μM): 62%
activation at 100 µM (HUVEC cells; Gefitinib (10 μM), NO-NSAID 100 μM): 42%
activation at 100 µM (HUVEC cells; [6]): 30%
activation at 100 µM (HUVEC cells; [7]): 30%
activation at 100 µM (HUVEC cells; [8]): 74%
activation at 100 µM (HUVEC cells; [9]): 28%
activation at 100 µM (HUVEC cells; [10]): 74%
activation at 100 µM (HUVEC cells; [11]): 34%
activation at 100 µM (HUVEC cells; [12]): 76%
activation at 100 µM (HUVEC cells; [13]): 34%
activation at 100 µM (HUVEC cells; Vemurafenib (5 μM), NO-NSAID 100 μM): 58%
NO-NSAID response rate % (average) (HUVEC cells; Infigratinib (15 μM), NO-NSAID 0.1 μM): 23%
NO-NSAID response rate % (average) (HUVEC cells; Infigratinib (15 μM), NO-NSAID 1 μM): 39%
NO-NSAID response rate % (average) (HUVEC cells; [6]): 30%
NO-NSAID response rate % (average) (HUVEC cells; Infigratinib (15 μM), NO-NSAID 500 μM): 18%
NO-NSAID response rate % (average) (HUVEC cells; Lapatinib (5 μM), NO-NSAID 0.1 μM): 20%
NO-NSAID response rate % (average) (HUVEC cells; Lapatinib (5 μM), NO-NSAID 1 μM): 17%
NO-NSAID response rate % (average) (HUVEC cells; [7]): 30%
NO-NSAID response rate % (average) (HUVEC cells; Lapatinib (5 μM), NO-NSAID 500 μM): 28%
NO-NSAID response rate % (average) (HUVEC cells; Lenvatinib (10 μM), NO-NSAID 0.1 μM): 24%
NO-NSAID response rate % (average) (HUVEC cells; Lenvatinib (10 μM), NO-NSAID 1 μM): 15%
NO-NSAID response rate % (average) (HUVEC cells; [8]): 74%
NO-NSAID response rate % (average) (HUVEC cells; Lenvatinib (10 μM), NO-NSAID 500 μM): 14%
NO-NSAID response rate % (average) (HUVEC cells; Olmutinib (10 μM), NO-NSAID 0.1 μM): 25%
NO-NSAID response rate % (average) (HUVEC cells; Olmutinib (10 μM), NO-NSAID 1 μM): 38%
NO-NSAID response rate % (average) (HUVEC cells; [9]): 28%
NO-NSAID response rate % (average) (HUVEC cells; Olmutinib (10 μM), NO-NSAID 500 μM): 30%
NO-NSAID response rate % (average) (HUVEC cells; Regorafenib (5 μM), NO-NSAID 0.1 μM): 29%
NO-NSAID response rate % (average) (HUVEC cells; Regorafenib (5 μM), NO-NSAID 1 μM): 26%
NO-NSAID response rate % (average) (HUVEC cells; [10]): 74%
NO-NSAID response rate % (average) (HUVEC cells; Regorafenib (5 μM), NO-NSAID 500 μM): 26%
NO-NSAID response rate % (average) (HUVEC cells; Selumetinib (5 μM), NO-NSAID 0.1 μM): 35%
NO-NSAID response rate % (average) (HUVEC cells; Selumetinib (5 μM), NO-NSAID 1 μM): 33%
NO-NSAID response rate % (average) (HUVEC cells; [11]): 34%
NO-NSAID response rate % (average) (HUVEC cells; Selumetinib (5 μM), NO-NSAID 500 μM): 41%
NO-NSAID response rate % (average) (HUVEC cells; Sorafenib (5 μM), NO-NSAID 0.1 μM): 4%
NO-NSAID response rate % (average) (HUVEC cells; Sorafenib (5 μM), NO-NSAID 1 μM): 17%
NO-NSAID response rate % (average) (HUVEC cells; [12]): 76%
NO-NSAID response rate % (average) (HUVEC cells; Sorafenib (5 μM), NO-NSAID 500 μM): 16%
NO-NSAID response rate % (average) (HUVEC cells; Sunitinib (5 μM), NO-NSAID 0.1 μM): 19%
NO-NSAID response rate % (average) (HUVEC cells; Sunitinib (5 μM), NO-NSAID 1 μM): 20%
NO-NSAID response rate % (average) (HUVEC cells; [13]): 34%
NO-NSAID response rate % (average) (HUVEC cells; Sunitinib (5 μM), NO-NSAID 500 μM): 20%
